Here are results for one sequence from patent publication US7576177B2, “Hsp peptides and analogs for modulation of immune responses via antigen presenting cells” (Andromeda Biotech Ltd., priority 2002, dated 2009).

For assay [1], the system named is peripheral blood mononuclear cells cultured with GM-CSF and IL4 (dendritic cells). Briefly: Peripheral blood derived dendritic cells: secreted cytokines (IP-10, IL-8) and cell surface antigens (CD83, CD86). The class given is cell-based, human. As to conditions: for IL-8 / IP-10: overnight. How it is done: The effect of the compositions of the present invention on peripheral blood derived dendritic cells, was tested according to a protocol described by Re, F. and Strominger, J. L. 2001. Toll-like receptor 2 (Tlr2) and Tlr4 differentially activate human dendritic cells. (J Biol Chem 276: 37692-9). According to this method immature dendritic cells derived from human peripheral blood are used. The outcome after incubating the cells with tested molecules is different if the stimulation is through the Toll 4 receptor or the Toll 2 receptor. According to the authors, Toll 2 signaling by stimulation with zymosan is associated with a Th2 kind of response (exemplified by IL-8) and Toll 4 signaling, such as obtained by LPS stimulation (exemplified by IP-10), with a Th1 type of response. The compositions of the present invention were tested using a similar assay system in order to check which stimulation type they induce. […] The increase in CD86 expression after exposure of APCs to Hsps or Hsp derived peptides is important since CD86 (B7.2) is an essential component of the immunological synapse formed between T cells and APC. This synapse consists of CD80 and CD86 on the side of the APC and CD28 and CD40 on the side of the T cell. T cell recognition of peptide on APC without the concurrent expression of CD86 gives rise to anergy instead of a T cell response. Therefore in order to produce a response all components must be present.
The assay was based on the protocol described by Re, F. and Strominger, J. L. 2001. Toll-like receptor 2 (Tlr2) and Tlr4 differentially activate human dendritic cells. (J. Biol Chem 276: 37692-9).
Peripheral blood mononuclear cells were prepared from leucocytes from blood lots obtained from the blood bank. The cells were plated at 10^8 cells/10 ml/Petri dish in RPMI medium including 10% FCS and allowed to adhere at 37° C. for 2 hours. At the end of this time, the non-adherent cells were washed off the plates with PBS and the adherent cells resuspended in fresh medium as before. The cells were then cultured for at least 8 days with the addition of GM-CSF and IL4 with the medium changed every 4 days. After this time, the cells were harvested and cultured overnight with LPS, zymosan or p277(Val^6-Va^11). The next day, the supernatant was collected for assay of the secreted cytokines (IP-10 and IL-8) and the cells were harvested for investigation of the cell surface antigens (CD83, CD86). CD83 is an antigen characteristic of dendritic cells. […] The second marker, CD86 (B7.2) is characteristic of mature dendritic cells. The marker CD86 is an essential component of the immunological synapse formed between T cells and APC. This synapse consists of CD80 and CD86 on the side of the APC and CD28 and CD40 on the side of the T cell. This is of course in addition to the specific recognition between the T cell receptor and peptide held in the MHC of the APC. T cell recognition of peptide on APC without the concurrent expression of CD86 gives rise to anergy instead of a T cell response.

Another assay deals with J774 cells. Conditions: 48 hours. How it is done:
Nitric oxide is a proinflammatory mediator produced by macrophages. The classic stimulus for nitric oxide production is lipopolysaccharide (LPS). Other molecules derived from pathogens such as hsp60 also induce macrophages to produce nitric oxide. Nitric oxide is usually produced by cells in conjunction with TNFα, IL-1 and IL-6.
The effect of p277(Val^6-Val^11) was tested on the production of nitric oxide from a macrophage cell line both the direct effect and the effect of p277(Val^6-Val^11) on the nitric oxide produced in response to hsp60.
The assay method is described in full in WO 01/43691. Briefly, J774 cells (2×10^5 cells/assay) were incubated for 48 hours with LPS, hsp60 or p277(Val^6-Val^11) or in inhibition assay, the cells were incubated with hsp60 at various concentrations in the presence or absence of 20 μg/ml p277(Val^6-Val^11). After 48 hours the supernatant was collected and tested for nitric oxide. The test for nitric oxide is performed by mixing an equal volume of the cell supernatant with Griess reagent and measuring the resultant color at 550 nm.

“VLGGGVALLRVIPALDSLTPANED [p277(Val^6-Val^11)]”: in assay [1] (overnight stimulation), the “IL-8 secretion (in words)” value is “resulted in IL-8 secretion”. Moreover, in assay [1] (overnight stimulation), the “IP-10 secretion (in words)” value is given as “no IP-10 secretion”. Also, the “maturation: percentage of cells stained with anti-CD86” value in assay [1] (overnight stimulation, FIG. 3) is recorded as “increase of maturation”. The values for the IL-8 in assay [1] (stimulus 0.5 ng/ml) and in assay [1] (stimulus 50 ng/ml) were 2368 pg/mL and 2574 pg/mL, respectively. For the same sequence, the IP-10 in assay [1] (stimulus 0.5 ng/ml) was -1 pg/mL; in assay [1] (stimulus 5 ng/ml), 2 pg/mL; in assay [1] (stimulus 50 ng/ml) it was 39 pg/mL; in assay [1] (stimulus 0.5 μg/ml), 21 pg/mL. Besides, the “direct stimulation of nitric oxide production” value in the assay with J774 cells is on record as “Under no conditions did the peptide stimulate nitric oxide production”. Besides, the “inhibition of hsp60 induced nitric oxide” value with J774 cells (hsp60 at various concentrations with 20 μg/ml peptide) was “Neither did it inhibit the hsp60 induced nitric oxide produced”.
